Structures are written as SMILES.

The values that follow come from paper PMC8151276, “An Integrated Approach toward NanoBRET Tracers for Analysis of GPCR Ligand Engagement” (Molecules, 2021).

Assay type in all cases: binding
The target in one test is T1, CX3CR1 (Homo sapiens, UniProt P49238).
T1 construct: purchased Promega (in-house HiBiT-GPCR construct library, NanoBRET)
T1 sequence (P49238 1-355): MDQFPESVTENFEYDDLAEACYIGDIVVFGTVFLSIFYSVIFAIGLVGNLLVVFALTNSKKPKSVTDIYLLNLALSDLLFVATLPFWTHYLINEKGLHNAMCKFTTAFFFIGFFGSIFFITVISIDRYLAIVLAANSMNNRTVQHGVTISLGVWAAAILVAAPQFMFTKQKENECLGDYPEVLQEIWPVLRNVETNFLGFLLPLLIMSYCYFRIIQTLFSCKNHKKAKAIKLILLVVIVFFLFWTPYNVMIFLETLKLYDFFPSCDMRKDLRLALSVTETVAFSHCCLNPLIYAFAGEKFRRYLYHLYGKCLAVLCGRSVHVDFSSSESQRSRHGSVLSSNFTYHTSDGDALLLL
Put plainly: NanoBRET screen HiBiT-CX3CR1 in HEK293. How it is done:
(§1) Each tracer candidate was screened across the entire library of HiBiT-GPCR constructs using NanoBRET as the detection modality. As depicted in Figure 4A, the specificity of interactions was evaluated through decrease in BRET due to competitive displacement of a bound tracer by excess parental compound. Each tracer was analyzed for binding to each HiBiT-GPCR fusion in the absence and in the presence of competing parental compound. Briefly, HEK293 cells were transfected with HiBiT-GPCR constructs diluted into promoterless DNA to reduce expression and maximize translocation to the cell surface. Each tracer candidate was then screened at concentrations of 1 μM and 0.1 μM across cells expressing these fusions. Cells were treated for 1.5 h with tracer either alone or in the presence of 20 μM competing parental compound (i.e., control). BRET was measured upon addition of purified LgBiT and subsequent complementation with HiBiT genetically fused to a GPCR. The specificity of interactions was assessed through a decrease in BRET signal due to competitive displacement of the bound tracer. To further gauge the robustness of these interactions, the fold response over the control (i.e., BRETtracer/BRETcontrol) was calculated. We chose a 1.5-fold response, which translates to ≥7-fold signal over noise as the minimal threshold required to score an interaction as positive. […]. Below we highlight the screening results obtained for our exemplary fluorescent tracers based on Clozapine, Amitriptyline and AZD1283.
(§2) HiBiT-GPCR DNA constructs were diluted in 10 mM Tris pH 8 to a final concentration of 0.01 μg/μL, arrayed in 96-well plates and stored at −20 °C. For transfection, HEK293 cells were suspended in Opti-MEM (without phenol red) supplemented with 2% fetal bovine serum (Seradigm) and 100 units/mL penicillin–streptomycin (Gibco) at a final concentration of 220,000 cells/mL and dispensed into white 96-well plates at 90 μL/well. Subsequent transfections and screens were carried using an Agilent Bravo Automated Liquid Handling Platform. First, the 96-well HiBiT DNA arrays were diluted 25-fold in Opti-MEM (without serum or phenol red) to a final concentration of 0.0004 μg/μL and 20 μL of the diluted DNAs were transferred into new 96-well plates. Next, promoterless carrier DNA (1 μg/μL) was diluted 25-fold (0.04 μg/μL) and then dispensed into the diluted arrays at 20 μL/well. Following brief mixing, Viafect transfection reagent (Promega) diluted 16-fold into Opti-MEM was dispensed into the plates at 40 μL/well. After mixing by pipetting, plates were incubated for 10 min on the pipetting station deck. The DNA-transfection reagent complexes were then added to plates containing cells. To facilitate the screen, 10 μL of DNA-transfection reagent complexes were added in duplicates to the top 4 and bottom 4 rows, resulting in two identical 48-well arrays per plate. Plates with transfected cells were incubated for 18–20 h at 37 °C/5% CO2. A screen of each tracer across the entire library using two different concentrations requires duplicate plates of transfected cells. Depending on the number of tracers being screened, transfections can be scaled up using the same ratios. The next day, for each tracer, four 20× screening solutions in tracer dilution buffer (Promega) were prepared: two duplicates at final concentration of 20 μM and two duplicates at a final concentration of 2 μM. A competing unmodified compound was added to one of each duplicate at a final concentration of 400 μM. The four resulting solutions were diluted 4-fold in Opti-MEM without serum or phenol red to generate 5× solutions (5 µM and 0.5 µM tracer +/− 100 μM competing compound). To screen the library, a BioTek MultiFlo FX liquid dispenser was used to dispense 22.5 µL of tracer solution to the top 4 rows and 22.5 µL tracer + competing compound solution to the 4 bottom rows. Plates were briefly mixed on an orbital shaker and incubated for 1.5 h at room temperature. […]
In general terms: BRET reads energy transfer from a luciferase to a nearby fluorophore.

In the next test the target is T2, P2RY12 (Homo sapiens, UniProt Q9H244).
T2 construct: purchased Promega (in-house HiBiT-GPCR construct library, NanoBRET)
T2 sequence (Q9H244 whole entry, one chain of several): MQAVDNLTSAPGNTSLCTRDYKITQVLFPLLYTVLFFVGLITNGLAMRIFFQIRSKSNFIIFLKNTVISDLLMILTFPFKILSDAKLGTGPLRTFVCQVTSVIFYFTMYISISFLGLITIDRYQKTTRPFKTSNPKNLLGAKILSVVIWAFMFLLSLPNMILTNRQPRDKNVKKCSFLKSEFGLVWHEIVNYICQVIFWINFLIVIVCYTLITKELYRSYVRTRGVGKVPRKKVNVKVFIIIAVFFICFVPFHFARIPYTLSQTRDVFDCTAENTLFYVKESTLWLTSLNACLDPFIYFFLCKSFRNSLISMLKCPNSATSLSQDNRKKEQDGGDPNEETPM
Put plainly: NanoBRET screen HiBiT-P2RY12 in HEK293. Here is the method:
as §1, §2

The target of another test is T3, HCRTR1 (Homo sapiens, UniProt O43613).
T3 construct: purchased Promega (in-house HiBiT-GPCR construct library, NanoBRET)
T3 sequence (O43613 1-425): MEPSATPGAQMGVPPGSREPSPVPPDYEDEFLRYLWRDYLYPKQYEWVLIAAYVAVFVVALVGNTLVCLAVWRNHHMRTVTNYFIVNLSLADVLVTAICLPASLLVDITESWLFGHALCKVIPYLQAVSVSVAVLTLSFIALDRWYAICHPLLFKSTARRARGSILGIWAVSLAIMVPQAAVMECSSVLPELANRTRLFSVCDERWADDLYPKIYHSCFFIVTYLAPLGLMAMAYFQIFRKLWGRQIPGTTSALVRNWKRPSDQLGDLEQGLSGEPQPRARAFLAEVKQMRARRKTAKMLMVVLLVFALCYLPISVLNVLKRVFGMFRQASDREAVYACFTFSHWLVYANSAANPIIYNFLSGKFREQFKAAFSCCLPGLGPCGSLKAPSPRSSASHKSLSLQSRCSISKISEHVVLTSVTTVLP
Put plainly: NanoBRET screen HiBiT-HCRTR1 in HEK293. How it is done:
as §1, §2

In a further test the target is T4, HRH4 (Homo sapiens, UniProt Q9H3N8).
T4 construct: purchased Promega (in-house HiBiT-GPCR construct library, NanoBRET)
T4 sequence (Q9H3N8 whole entry): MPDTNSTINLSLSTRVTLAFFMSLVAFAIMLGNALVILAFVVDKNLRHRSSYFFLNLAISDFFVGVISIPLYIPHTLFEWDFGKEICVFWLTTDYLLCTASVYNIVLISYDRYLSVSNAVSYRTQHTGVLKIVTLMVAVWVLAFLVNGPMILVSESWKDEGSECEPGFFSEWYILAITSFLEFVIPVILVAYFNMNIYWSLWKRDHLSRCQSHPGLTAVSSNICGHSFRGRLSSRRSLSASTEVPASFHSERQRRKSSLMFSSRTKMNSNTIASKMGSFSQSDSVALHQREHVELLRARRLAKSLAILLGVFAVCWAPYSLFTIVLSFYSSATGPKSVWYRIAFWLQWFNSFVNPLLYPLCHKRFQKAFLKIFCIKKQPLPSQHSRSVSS
Description: NanoBRET screen HiBiT-HRH4 in HEK293. How it is done: as §1, §2

A further test deals with T5, GRM2 (Homo sapiens, UniProt Q14416).
T5 construct: purchased Promega (in-house HiBiT-GPCR construct library, NanoBRET)
T5 sequence (Q14416 19-872): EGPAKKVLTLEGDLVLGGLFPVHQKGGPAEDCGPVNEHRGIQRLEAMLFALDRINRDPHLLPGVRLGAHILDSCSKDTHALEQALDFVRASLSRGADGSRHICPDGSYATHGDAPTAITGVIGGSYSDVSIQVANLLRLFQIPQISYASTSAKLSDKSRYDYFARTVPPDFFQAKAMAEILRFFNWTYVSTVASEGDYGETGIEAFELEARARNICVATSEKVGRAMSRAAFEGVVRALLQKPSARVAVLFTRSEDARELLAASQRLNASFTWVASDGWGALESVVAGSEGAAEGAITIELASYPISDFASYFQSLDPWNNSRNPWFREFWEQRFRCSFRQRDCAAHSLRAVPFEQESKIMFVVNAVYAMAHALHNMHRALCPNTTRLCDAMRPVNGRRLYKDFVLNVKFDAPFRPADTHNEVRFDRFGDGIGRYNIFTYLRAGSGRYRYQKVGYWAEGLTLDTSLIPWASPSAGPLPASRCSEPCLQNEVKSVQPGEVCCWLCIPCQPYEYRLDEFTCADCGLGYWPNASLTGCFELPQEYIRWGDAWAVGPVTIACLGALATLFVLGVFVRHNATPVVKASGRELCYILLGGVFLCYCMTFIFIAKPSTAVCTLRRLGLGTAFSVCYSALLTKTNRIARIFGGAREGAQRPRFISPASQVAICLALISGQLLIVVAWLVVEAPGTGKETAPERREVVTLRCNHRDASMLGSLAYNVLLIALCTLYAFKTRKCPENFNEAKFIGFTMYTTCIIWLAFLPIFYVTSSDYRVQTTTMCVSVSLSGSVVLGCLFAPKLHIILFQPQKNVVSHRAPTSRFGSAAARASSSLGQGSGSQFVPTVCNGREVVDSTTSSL
Put plainly: NanoBRET screen HiBiT-GRM2 in HEK293. The settings on record: GRM2. How it is done: as §1, §2

For a further test, the target named is T6, P2RY1 (Homo sapiens, UniProt P47900).
T6 construct: purchased Promega (in-house HiBiT-GPCR construct library, NanoBRET)
T6 sequence (P47900 whole entry): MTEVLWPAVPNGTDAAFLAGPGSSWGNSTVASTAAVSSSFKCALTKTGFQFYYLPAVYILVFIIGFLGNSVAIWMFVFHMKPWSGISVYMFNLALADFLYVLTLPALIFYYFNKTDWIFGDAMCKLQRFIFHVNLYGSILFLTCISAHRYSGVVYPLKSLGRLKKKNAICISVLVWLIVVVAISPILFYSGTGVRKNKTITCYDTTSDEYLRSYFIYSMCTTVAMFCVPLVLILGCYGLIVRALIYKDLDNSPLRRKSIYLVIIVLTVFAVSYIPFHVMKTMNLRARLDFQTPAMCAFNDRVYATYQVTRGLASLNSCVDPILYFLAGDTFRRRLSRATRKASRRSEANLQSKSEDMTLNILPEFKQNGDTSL
Description: NanoBRET screen HiBiT-P2RY1 in HEK293. Here is the method: as §1, §2

With `O=C(CCOCCOCCOCCOCCNC(=O)CCc1ccc2n1[B-](F)(F)[N+]1=C(c3ccc[nH]3)C=CC1=C2)NCCCN1CCN(C2=Nc3ccccc3Oc3ccc(Cl)cc32)CC1` [Loxapine-a-2-NB590], the “NanoBRET Fold Response” value turned out to be 1.05 at CX3CR1 (CX3CR1, tracer 0.1μM); 0.91 at CX3CR1 (CX3CR1, tracer 1μM); 0.99 at P2RY12 (P2RY12, tracer 0.1μM); 0.84 on P2RY12 (P2RY12, tracer 1μM); 0.93 on HCRTR1 (HCRTR1, tracer 0.1μM); 1.09 on HCRTR1 (HCRTR1, tracer 1μM). The “NanoBRET Fold Response” value on HRH4 (HRH4, tracer 0.1μM) was determined as 0.96; on HRH4 (HRH4, tracer 1μM), 1.02; at GRM2 (tracer 0.1μM) it was 1.00; at GRM2 (tracer 1μM), 1.25; at P2RY1 (P2RY1, tracer 0.1μM) it was 1.01; on P2RY1 (P2RY1, tracer 1μM) it was 0.97.

With `CCCn1c(=O)c2[nH]c(-c3ccc(OCC(=O)NCCNC(=O)CCOCCNC(=O)c4ccc(CNC(=O)CCc5ccc6n5[B-](F)(F)[N+]5=C(c7ccc[nH]7)C=CC5=C6)cc4)cc3)nc2n(CCC)c1=O` [XAC-3-NB590], the “NanoBRET Fold Response” value is listed as 0.87 at CX3CR1 (CX3CR1, tracer 0.1μM); 0.83 on CX3CR1 (CX3CR1, tracer 1μM); 0.91 on P2RY12 (P2RY12, tracer 0.1μM); 1.04 at P2RY12 (P2RY12, tracer 1μM); 0.91 at HCRTR1 (HCRTR1, tracer 0.1μM); 0.88 at HCRTR1 (HCRTR1, tracer 1μM). In addition, the “NanoBRET Fold Response” value at HRH4 (HRH4, tracer 0.1μM) is given as 1.37; on HRH4 (HRH4, tracer 1μM) it was 1.05; at GRM2 (tracer 0.1μM), 1.01; at GRM2 (tracer 1μM), 1.03; on P2RY1 (P2RY1, tracer 0.1μM), 1.05; at P2RY1 (P2RY1, tracer 1μM), 0.96.

Regarding `CN(C)CCC=C1c2ccccc2CCc2ccc(C(=O)NCCNC(=O)CCOCCOCCOCCOCCNC(=O)CCc3ccc4n3[B-](F)(F)[N+]3=C(c5ccc[nH]5)C=CC3=C4)cc21` [Amitriptyline-a-2-NB590], the “NanoBRET Fold Response” value came to 1.07 on CX3CR1 (tracer at 0.1μM); 0.99 on CX3CR1 (tracer at 1μM); 1.14 on P2RY12 (tracer at 0.1μM); 0.93 on P2RY12 (tracer at 1μM); 1.00 on HCRTR1 (tracer at 0.1μM); 1.00 on HCRTR1 (tracer at 1μM). Also, the “NanoBRET Fold Response” value came to 1.23 on HRH4 (tracer at 0.1μM), 1.04 at HRH4 (tracer at 1μM), 0.97 at P2RY1 (tracer at 0.1μM) and 1.01 at P2RY1 (tracer at 1μM).

On to `COc1ccccc1N1CCN(CCCCN2C(=O)c3ccc(CNC(=O)CCOCCOCCOCCOCCNC(=O)CCc4ccc5n4[B-](F)(F)[N+]4=C(c6ccc[nH]6)C=CC4=C5)cc3C2=O)CC1` [NAN-190-2-NB590], for which the “NanoBRET Fold Response” value on CX3CR1 (CX3CR1, tracer 0.1μM) came out at 0.99; at CX3CR1 (CX3CR1, tracer 1μM), 0.86; on HRH4 (HRH4, tracer 0.1μM), 0.96; at GRM2 (tracer 0.1μM) it was 0.26; on GRM2 (tracer 1μM), 1.00; at P2RY1 (P2RY1, tracer 0.1μM), 0.97.

On to `O=C(CCc1ccc2n1[B-](F)(F)[N+]1=C(c3ccc[nH]3)C=CC1=C2)NCc1ccc(C(=O)NCCOCCOCCNCC(O)COc2cccc3ccccc23)cc1` (centres unmarked) [Propranolol-3-NB590], for which the “NanoBRET Fold Response” value is 1.08 at CX3CR1 (CX3CR1, 0.1μM); 1.03 on CX3CR1 (CX3CR1, 1μM); 1.02 on P2RY12 (P2RY12, 0.1μM); 0.94 on P2RY12 (P2RY12, 1μM); 1.01 at HCRTR1 (HCRTR1, 0.1μM); 0.94 at HCRTR1 (HCRTR1, 1μM). Besides, the “NanoBRET Fold Response” value was 0.92 at HRH4 (HRH4, 0.1μM); 0.97 at HRH4 (HRH4, 1μM); 0.94 on GRM2 (0.1μM); 1.05 on GRM2 (1μM); 1.02 at P2RY1 (P2RY1, 0.1μM); 0.97 at P2RY1 (P2RY1, 1μM).

As to `COc1ccccc1N1CCN(CCCCN2C(=O)c3ccc(CNC(=O)CCOCCNC(=O)c4ccc(CNC(=O)CCc5ccc6n5[B-](F)(F)[N+]5=C(c7ccc[nH]7)C=CC5=C6)cc4)cc3C2=O)CC1` [NAN-190-3-NB590], the “NanoBRET Fold Response” value on CX3CR1 (CX3CR1, tracer 0.1μM) stood at 0.90; on CX3CR1 (CX3CR1, tracer 1μM), 1.01; at P2RY12 (P2RY12, tracer 0.1μM), 1.12; on P2RY12 (P2RY12, tracer 1μM), 1.10; at HCRTR1 (HCRTR1, tracer 0.1μM), 0.98; on HCRTR1 (HCRTR1, tracer 1μM), 0.91. For the same molecule, the “NanoBRET Fold Response” value on HRH4 (HRH4, tracer 0.1μM) worked out at 0.93; at HRH4 (HRH4, tracer 1μM), 0.93; at GRM2 (tracer 0.1μM) it was 1.03; at GRM2 (tracer 1μM) it was 1.03; at P2RY1 (P2RY1, tracer 0.1μM) it was 0.97; on P2RY1 (P2RY1, tracer 1μM), 1.00.

Turning to `O=C(CCc1ccc2n1[B-](F)(F)[N+]1=C(c3ccc[nH]3)C=CC1=C2)NCc1ccc(C(=O)NCCOCCC(=O)N[C@@H]2CC[C@@]3(O)[C@H]4Cc5ccc(O)c6c5[C@@]3(CCN4CC3CC3)[C@H]2O6)cc1` [Naltrexone-3-NB590], the “NanoBRET Fold Response” value at CX3CR1 (CX3CR1, tracer 0.1μM) is on record as 1.32; on CX3CR1 (CX3CR1, tracer 1μM) it was 0.81; at P2RY12 (P2RY12, tracer 0.1μM), 1.30; at P2RY12 (P2RY12, tracer 1μM), 0.88; at HCRTR1 (HCRTR1, tracer 0.1μM), 0.98; at HCRTR1 (HCRTR1, tracer 1μM), 0.88. In addition, the “NanoBRET Fold Response” value is recorded as 0.75 at HRH4 (HRH4, tracer 0.1μM); 0.91 at HRH4 (HRH4, tracer 1μM); 0.92 on GRM2 (tracer 0.1μM); 0.98 at GRM2 (tracer 1μM); 0.86 on P2RY1 (P2RY1, tracer 0.1μM); 0.95 at P2RY1 (P2RY1, tracer 1μM).

In the case of `CN(CCC=C1c2ccccc2CCc2ccccc21)C(=O)CCOCCOCCOCCOCCNC(=O)CCc1ccc2n1[B-](F)(F)[N+]1=C(c3ccc[nH]3)C=CC1=C2` [Amitriptyline-e-2-NB590], the “NanoBRET Fold Response” value on CX3CR1 (tracer at 1μM) was 0.99; at P2RY12 (tracer at 1μM), 1.05; at HRH4 (tracer at 1μM), 0.92; on P2RY1 (tracer at 1μM), 0.96.
